From patent US20220098196A1, “TRAPPING-FREE PARP INHIBITORS” (The Board of Regents of the University of Texas System, priority 2019, published 2022)
Where a SMILES comes first, the peptide text is derived from it. The star is where a group is joined. Cbz = O=C(OCc1ccccc1)*

Key:
ZFP91 = ZFP91 (Homo sapiens, UniProt Q96JP5+Q96SW2); test: TMT quantitative proteomics in BT-549 cells, ZFP91; assay type: cell-based; parameters: host or cells: HeLa; BT-549; details: VHL-Rucaparib 20 μM, 24 hours
Description: Quantitative Mass Spectrometry. […] Two biological replicate samples were prepared for each treatment condition. Cells were washed with cold PBS and lysed using the SDS lysis buffer. Protein concentrations were determined by the BCA assay (Thermo Fisher Scientific). For each sample, 500 μg of protein was used for the subsequent TMT experiments^34.
For the TMT experiments, proteins were reduced with 2 mM DTT for 10 min and alkylated with 50 mM iodoacetamide for 30 min in dark. Proteins were then extracted using methanol-chloroform precipitation. Protein pellets were dissolved in 400 μL 8 M Urea buffer (8 M urea, 50 mM Tris-HCl, 10 mM EDTA, pH 7.5) and were digested by Lys-C (Wako, at a 1:100 enzyme/protein ratio) for 2 hours at RT. The urea concentration was then reduced to 2 M using freshly made 100 mM ammonium bicarbonate solution. […]
Samples were desalted and fractioned by bRPLC (basic pH reversed phase HPLC) on a ZORBAX 300 Extend-C18 column (Narrow Bore RR 2.1 mm×100 mm, 3.5 μm particle size, 300 Å pore size). […] Samples were then analyzed on an Orbitrap Elite mass spectrometer (Thermo Fisher Scientific) using a top 15 HCD (higher-energy collisional dissociation) method.
The maximum intensity of each reporter ion was extracted. For each reporter ion channel, the observed signal-to-noise ratio was summed across all quantified proteins and was normalized.

PARP1 [1] = target: T1, PARP1 (Homo sapiens, UniProt P09874); test: TMT quantitative proteomics in BT-549 cells, PARP1; assay type: cell-based; details: iRucaparib 5 μM or VHL-Rucaparib 20 μM, 24 hours, 8,207 quantified proteins
Text: Quantitative Mass Spectrometry.
Proteins were then extracted using methanol-chloroform precipitation.
The maximum intensity of each reporter ion was extracted.

PARP1 [2] = target: T1, PARP1; test: PARP1 degradation in VHL-proficient (BT-549, PC-3) and VHL-deficient (786-O) cells (immunoblotting); assay type: cell-based; parameters: host or cells: MDA-MB-468; BT-549; PC-3; 786-O; details: 24 hours
Description: (§1) Immunoblotting. Cells were washed once with cold PBS and lysed with the SDS lysis buffer (1% SDS, 10 mM HEPES pH 7.0, 2 mM MgCl2, 500 U universal nuclease). Protein concentrations were determined by the BCA assay kit (Thermo Fisher Scientific). A total of 20 μg proteins (40 μg proteins for PAR immunoblotting experiments) were loaded onto the SDS-PAGE gel and were then transferred to a nitrocellulose membrane. Nitrocellulose membranes were then blocked with the TBST buffer containing 5% milk (Bio-Rad). Membranes were incubated with the primary antibodies overnight at 4° C. and the secondary antibodies for 1 hour at room temperature (RT). The blots were developed using enhanced chemiluminescence and were exposed on autoradiograph films.

PARP1 [3] = target: T1, PARP1; test: In Vitro PARP1 Activity Assay (PARP universal chemiluminescent assay kit); assay type: biochemical; details: in vitro
Description: In Vitro PARP1 Activity Assay. […] Briefly, the histone-coated strip wells were hydrated with the assay buffer for 30 min. The various compounds were added and were incubated with the PARP enzyme for 10 min. The reaction cocktail containing biotinylated NAD^+ was then added into the system, which was incubated for 1 hour to activate PARP1. After the reaction, the wells were washed twice with 0.1% Triton X-100/PBS and twice with PBS. The wells were incubated with Strep-HRP for another hour and were washed again as described above. PeroxyGlow reagents were mixed and added into the strip wells, and the biotin signal on coated histone was immediately measured with chemiluminescence on a Synergy microplate reader (Bio-Tek). The well without PARP1, and the well with PARP1 only was used as the negative (0%) and positive (100%) control, respectively.

PARP1 [4] = target: T1, PARP1; test: PARP1 degradation in HeLa cells (immunoblotting); assay type: cell-based; parameters: host or cells: HeLa; details: 24 hours; for PARP1 degradation: increasing concentrations; for effect on iRucaparib-induced PARP1 degradation: iRucaparib 5 μM plus MG132 (1 μM), Rucaparib (1 μM) or increasing pomalidomide
Description: as §1

PARP1 [5] = target: T1, PARP1; test: PARP1 trapping in HeLa cells (subcellular fractionation, chromatin-bound fraction); assay type: cell-based; parameters: host or cells: HeLa; details: 5 μM for all compounds, MMS 0.01%
Description: Subcellular Proteins Extraction. […] The cytosolic proteins were isolated by incubating the cells with the CEB buffer for 10 min at 4° C., and centrifuged at 500 g for 5 min. The membrane proteins were isolated by incubating the pellet from previous step with the MEB buffer for 10 min at 4° C., and centrifuged at 3000 g for 5 min. The soluble nuclear proteins were isolated by incubating the pellet from previous step with the NEB buffer for 30 min at 4° C., and centrifuged at 5000 g for 5 min. The chromatin bound proteins were isolated by incubating the pellet from previous step with the NEB buffer supplemented with nuclease for 15 min at RT and centrifuged at 16000 g for 5 min. Protein concentrations were determined by the BCA assay kit.

[6] = Phase III, patients taking pomalidomide and dexamethasone vs. dexamethasone alone; p=0.0002; cited from earlier work

T1 sequence (P09874 whole entry): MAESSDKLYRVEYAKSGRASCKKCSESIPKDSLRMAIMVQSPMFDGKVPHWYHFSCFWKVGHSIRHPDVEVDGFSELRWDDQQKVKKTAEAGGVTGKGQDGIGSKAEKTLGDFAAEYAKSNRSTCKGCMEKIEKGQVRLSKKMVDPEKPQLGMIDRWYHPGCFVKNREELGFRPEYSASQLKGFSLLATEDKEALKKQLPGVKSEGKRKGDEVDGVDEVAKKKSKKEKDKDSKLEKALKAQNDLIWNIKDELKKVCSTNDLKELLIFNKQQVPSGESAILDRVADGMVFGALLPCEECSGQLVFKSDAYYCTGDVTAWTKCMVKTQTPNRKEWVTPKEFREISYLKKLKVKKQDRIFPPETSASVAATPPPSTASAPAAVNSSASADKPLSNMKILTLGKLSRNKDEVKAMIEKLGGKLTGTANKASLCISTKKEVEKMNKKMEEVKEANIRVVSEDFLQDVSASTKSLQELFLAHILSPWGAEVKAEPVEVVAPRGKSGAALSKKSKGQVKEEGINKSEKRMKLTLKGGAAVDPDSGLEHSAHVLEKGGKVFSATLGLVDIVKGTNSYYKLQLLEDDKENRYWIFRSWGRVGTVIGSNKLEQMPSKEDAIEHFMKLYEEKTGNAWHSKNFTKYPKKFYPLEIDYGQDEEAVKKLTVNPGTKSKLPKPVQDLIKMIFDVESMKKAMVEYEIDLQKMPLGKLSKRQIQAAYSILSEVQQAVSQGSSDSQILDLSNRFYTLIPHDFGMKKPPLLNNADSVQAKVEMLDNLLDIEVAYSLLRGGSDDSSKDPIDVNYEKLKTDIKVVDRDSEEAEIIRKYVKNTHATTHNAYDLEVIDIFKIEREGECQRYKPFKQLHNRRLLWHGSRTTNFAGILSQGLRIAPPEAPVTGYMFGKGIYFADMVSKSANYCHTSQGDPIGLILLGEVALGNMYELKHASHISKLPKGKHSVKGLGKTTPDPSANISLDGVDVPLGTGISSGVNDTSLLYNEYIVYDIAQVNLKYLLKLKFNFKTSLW
Sequence of ZFP91 (Q16531 2-1140): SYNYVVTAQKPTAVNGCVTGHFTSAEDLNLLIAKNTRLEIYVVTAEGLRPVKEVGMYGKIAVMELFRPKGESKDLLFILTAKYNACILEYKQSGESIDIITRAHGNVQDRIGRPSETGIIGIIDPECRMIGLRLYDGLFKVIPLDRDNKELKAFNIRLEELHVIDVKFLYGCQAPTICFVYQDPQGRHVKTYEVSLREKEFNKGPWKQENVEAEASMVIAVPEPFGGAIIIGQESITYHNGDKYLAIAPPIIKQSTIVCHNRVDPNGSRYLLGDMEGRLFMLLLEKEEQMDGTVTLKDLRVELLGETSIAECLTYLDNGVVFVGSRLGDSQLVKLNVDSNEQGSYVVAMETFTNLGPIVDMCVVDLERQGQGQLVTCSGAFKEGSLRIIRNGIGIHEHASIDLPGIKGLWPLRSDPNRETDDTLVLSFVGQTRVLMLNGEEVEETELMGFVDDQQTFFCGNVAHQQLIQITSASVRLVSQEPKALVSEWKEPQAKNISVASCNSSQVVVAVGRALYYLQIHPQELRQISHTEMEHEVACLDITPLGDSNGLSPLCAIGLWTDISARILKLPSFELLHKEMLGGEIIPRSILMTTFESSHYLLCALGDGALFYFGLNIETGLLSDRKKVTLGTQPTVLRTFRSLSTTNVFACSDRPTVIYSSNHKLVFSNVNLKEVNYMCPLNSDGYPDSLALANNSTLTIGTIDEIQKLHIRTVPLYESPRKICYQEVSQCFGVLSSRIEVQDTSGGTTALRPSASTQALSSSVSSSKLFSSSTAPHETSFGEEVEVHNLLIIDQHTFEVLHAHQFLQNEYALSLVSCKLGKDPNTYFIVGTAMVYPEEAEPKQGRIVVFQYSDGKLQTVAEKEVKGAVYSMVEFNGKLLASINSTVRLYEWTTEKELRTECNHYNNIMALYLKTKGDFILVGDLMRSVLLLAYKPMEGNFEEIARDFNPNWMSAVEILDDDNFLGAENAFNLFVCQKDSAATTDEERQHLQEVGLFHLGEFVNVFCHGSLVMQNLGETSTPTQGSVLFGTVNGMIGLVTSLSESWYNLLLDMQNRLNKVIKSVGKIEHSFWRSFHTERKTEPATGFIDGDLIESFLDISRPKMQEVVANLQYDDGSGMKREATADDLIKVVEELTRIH
Sequence of ZFP91 (Q96SW2 whole entry): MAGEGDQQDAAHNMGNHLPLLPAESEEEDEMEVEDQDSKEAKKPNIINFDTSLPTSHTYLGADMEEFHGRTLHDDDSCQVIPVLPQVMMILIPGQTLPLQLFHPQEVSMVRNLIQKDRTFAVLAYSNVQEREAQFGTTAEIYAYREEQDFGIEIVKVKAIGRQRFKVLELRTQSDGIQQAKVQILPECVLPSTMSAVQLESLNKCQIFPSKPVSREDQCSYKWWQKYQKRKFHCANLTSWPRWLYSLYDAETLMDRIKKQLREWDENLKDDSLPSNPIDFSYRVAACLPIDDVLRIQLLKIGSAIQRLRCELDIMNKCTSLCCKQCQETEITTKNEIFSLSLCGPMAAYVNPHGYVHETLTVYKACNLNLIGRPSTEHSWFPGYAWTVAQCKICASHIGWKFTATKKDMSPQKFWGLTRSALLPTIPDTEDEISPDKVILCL
Sequence of ZFP91 (Q96JP5 2-570): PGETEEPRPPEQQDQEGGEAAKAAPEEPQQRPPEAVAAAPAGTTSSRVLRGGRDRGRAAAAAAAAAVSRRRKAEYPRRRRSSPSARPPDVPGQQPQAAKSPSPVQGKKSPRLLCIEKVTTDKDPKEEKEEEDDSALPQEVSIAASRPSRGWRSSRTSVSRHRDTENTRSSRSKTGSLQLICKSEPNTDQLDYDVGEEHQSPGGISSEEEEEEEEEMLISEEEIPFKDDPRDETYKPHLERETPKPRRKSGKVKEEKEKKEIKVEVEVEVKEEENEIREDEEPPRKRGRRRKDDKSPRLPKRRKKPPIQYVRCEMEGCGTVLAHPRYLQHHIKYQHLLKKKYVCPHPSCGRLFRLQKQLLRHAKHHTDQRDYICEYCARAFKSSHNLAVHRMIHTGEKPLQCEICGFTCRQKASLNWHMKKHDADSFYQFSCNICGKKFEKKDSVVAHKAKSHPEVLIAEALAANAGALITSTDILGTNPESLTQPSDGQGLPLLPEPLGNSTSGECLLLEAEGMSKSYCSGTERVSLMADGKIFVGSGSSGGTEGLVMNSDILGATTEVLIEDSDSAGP

Compound: Cc1ncsc1-c1ccc(CNC(=O)[C@@H]2C[C@@H](O)CN2C(=O)[C@@H](NC(=O)CCOCCOCCOCCOCCn2cc(CCCCN(C)Cc3ccc(-c4[nH]c5cc(F)cc6c5c4CCNC6=O)cc3)nn2)C(C)(C)C)cc1 [VHL-Rucaparib, Rucaparib-Triazole-PEG4-VHL-Ligand]
- ZFP91 abundance change (ZFP91): did not show any changes
- PARP1 downregulation (PARP1 [1]): one of the most significantly downregulated proteins
- PARP1 degradation (PARP1 [2]; BT549 cells, iRucaparib 5 μM or VHL-Rucaparib 20 μM): robust PARP1 degradation
- PARP1 level (PARP1 [2]; BT-549 cells (VHL-proficient)): successfully downregulated
- PARP1 level (PARP1 [2]; PC-3 cells (VHL-proficient), 10 μM): successfully downregulated

Compound: CN(CCCCc1cn(CCOCCNc2cccc3c2C(=O)N(C2CCC(=O)NC2=O)C3=O)nn1)Cc1ccc(-c2[nH]c3cc(F)cc4c3c2CCNC4=O)cc1 (centres unmarked) [PEG1, Rucaparib-Triazole-PEG1-Pomalidomide]
- biochemical (catalytic) inhibition of PARP1 (PARP1 [3]): maintained catalytic inhibitory activity against PARP1
- PARP1 degradation (PARP1 [4]): not able to degrade PARP1

Compound: C[C@]1(c2nc3c(C(N)=O)cccc3[nH]2)CCCN1 [Veliparib]
- potency in PARP1 trapping (rank order) (PARP1 [5]): BMN673>Niraparib>Olaparib>Rucaparib>Veliparib

Compound: CN(CCCCc1cn(CCOCCOCCNc2cccc3c2C(=O)N(C2CCC(=O)NC2=O)C3=O)nn1)Cc1ccc(-c2[nH]c3cc(F)cc4c3c2CCNC4=O)cc1 (centres unmarked) [PEG2, Rucaparib-Triazole-PEG2-Pomalidomide]
- biochemical (catalytic) inhibition of PARP1 (PARP1 [3]): maintained catalytic inhibitory activity against PARP1
- PARP1 degradation (PARP1 [4]): not able to degrade PARP1

Compound: NC(=O)c1cccc2cn(-c3ccc([C@@H]4CCCNC4)cc3)nc12 [Niraparib]
- potency in PARP1 trapping (rank order) (PARP1 [5]): BMN673>Niraparib>Olaparib>Rucaparib>Veliparib

Compound: CN(CCCCc1cn(CCOCCOCCOCCOCCNc2cccc3c2C(=O)N(C2CCC(=O)NC2=O)C3=O)nn1)Cc1ccc(-c2[nH]c3cc(F)cc4c3c2CCNC4=O)cc1 (centres unmarked) [PEG4 PROTAC, Rucaparib-Triazole-PEG4-Pomalidomide]
- PARP1 degradation (PARP1 [4]): able to degrade PARP1 as efficiently as iRucaparib

Compound: Nc1cccc2c1C(=O)N(C1CCC(=O)NC1=O)C2=O (centres unmarked) [pomalidomide, reference compound]
- overall survival (median) [6]: 11.9 months
- effect on PARP1 protein levels (PARP1 [4]; 5 μM): had no effect on PARP1 protein levels
- effect on iRucaparib-induced PARP1 degradation (PARP1 [4]): block PARP1 degradation

Compound: CC(C)C[C@@H](C=O)NC(=O)[C@H](CC(C)C)NC(=O)[C@H](CC(C)C)NC(=O)OCc1ccccc1 [MG132, reference compound] (Cbz-Leu-Leu-Leu-aldehyde)
- effect on iRucaparib-induced PARP1 degradation (PARP1 [4]): completely blocked
- effect on VHL-Rucaparib-induced PARP1 degradation (PARP1 [2]; PC-3 cells, VHL-Rucaparib 10 μM plus MG-132 1 μM): could be rescued by MG-132 treatment
